Reference: ChEMBL document CHEMBL3751751, “Targeting quorum sensing by designing azoline derivatives to inhibit the N-hexanoyl homoserine lactone-receptor CviR: Synthesis as well as biological and theoretical evaluations” (Bioorg Med Chem, 2015)
Active and inactive are the calls of the source. No cut-off for these calls is given here.

Tests used:
[1] = target: T1, CviR transcriptional regulator (Chromobacterium violaceum) (UniProt D3W065); experiment: Inhibition of CviR in Chromobacterium violaceum CV026 assessed as reduction of violacein production at 0.1 uM after 15 hrs
T1 sequence (whole entry): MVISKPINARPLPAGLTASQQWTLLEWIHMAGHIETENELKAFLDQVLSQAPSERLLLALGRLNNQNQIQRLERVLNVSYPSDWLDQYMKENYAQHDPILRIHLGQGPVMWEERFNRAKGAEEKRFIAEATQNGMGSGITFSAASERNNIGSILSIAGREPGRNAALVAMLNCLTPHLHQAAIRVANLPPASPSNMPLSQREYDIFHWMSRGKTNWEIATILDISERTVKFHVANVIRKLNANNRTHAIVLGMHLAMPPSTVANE

[2] = target: T1, CviR transcriptional regulator (Chromobacterium violaceum); experiment: Agonist activity at CviR in Chromobacterium violaceum CV026 assessed as induction of violacein production at 0.001 to 1000 uM after 15 hrs
[3] = target: T1, CviR transcriptional regulator (Chromobacterium violaceum); experiment: Inhibition of CviR in Chromobacterium violaceum CV026 assessed as reduction of violacein production at 0.001 to 1000 uM after 15 hrs
[4] = target: T1, CviR transcriptional regulator (Chromobacterium violaceum); experiment: Inhibition of CviR in Chromobacterium violaceum CV026 assessed as reduction of violacein production at 10 to 1000 uM after 15 hrs
[5] = target: T2, CviR transcriptional regulator (Chromobacterium violaceum, UniProt D3W065); experiment: Inhibition of CviR in Chromobacterium violaceum CV026 assessed as reduction of violacein production after 15 hrs
T2 sequence (D3W065 whole entry): T1 sequence (whole entry)

[6] = target: T1, CviR transcriptional regulator (Chromobacterium violaceum); experiment: Inhibition of CviR in Chromobacterium violaceum CV026 assessed as reduction of violacein production at 100 uM after 15 hrs
[7] = target: T1, CviR transcriptional regulator (Chromobacterium violaceum); experiment: Inhibition of CviR in Chromobacterium violaceum CV026 assessed as reduction of violacein production at 1000 uM after 15 hrs
[8] = target: T1, CviR transcriptional regulator (Chromobacterium violaceum); experiment: Inhibition of CviR in Chromobacterium violaceum CV026 assessed as reduction of violacein production at 100 nM after 15 hrs
[9] = target: T1, CviR transcriptional regulator (Chromobacterium violaceum); experiment: Inhibition of CviR in Chromobacterium violaceum CV026 assessed as reduction of violacein production at 1 nM after 15 hrs
[10] = system: Chromobacterium violaceum; experiment: Bactericidal activity in Chromobacterium violaceum CV026 at 1000 uM; format: ADME, organism-based; settings: in vivo
[11] = system: Chromobacterium violaceum; experiment: Bacteriostatic activity in Chromobacterium violaceum CV026 at 100 uM; format: ADME, organism-based; settings: in vivo
[12] = system: Chromobacterium violaceum; experiment: Bactericidal activity in Chromobacterium violaceum CV026 at 1 mM; format: ADME, organism-based; settings: in vivo, 1000 µM

SMILES | Activity [2] | inhibition [3] | also measured
CCCCCC(=O)Nc1ccc(C2=NCCN2)cc1 | inactive |  | inhibition [1]: Active
CCCCCC(=O)NC1=NCCS1 | inactive | inactive | 
O=C(NC1=NCCS1)c1ccccc1 | inactive | inactive | 
CCCCCC(=O)NC1CCOC1=O (stereo unspecified) | inactive |  | 
O=C(COc1ccc(C2=NCCN2)cc1)Nc1ccccc1 | inactive |  | inhibition [4]: Active; IC50 [5]: 66.1 µM
CCCCCCOc1ccc(C2=NCCO2)cc1 | inactive |  | inhibition [6]: Active; IC50 [5]: 97.4 µM
CCCCCCCCCCCC(=O)NC1=NCCS1 | inactive | inactive | 
COc1ccc(NC(=O)COc2ccc(C3=NCCN3)cc2)cc1 | inactive |  | inhibition [4]: Active; IC50 [5]: 341 µM
O=C(COc1ccc(C2=NCCN2)cc1)Nc1ccc(Cl)cc1 | inactive |  | 
O=C(Cc1ccccc1)NC1=NCCS1 | inactive |  | inhibition [7]: Active; IC50 [5]: 670 µM
CCCCCCCCCC(=O)NC1CCOC1=O (stereo unspecified) | inactive |  | inhibition [8]: 51%
CCCCCCOc1ccccc1 | inactive | inactive | 
CCCCCCCCC(=O)Nc1ccc(C2=NCCN2)cc1 | inactive |  | inhibition [9]: 14%; inhibition [6]: 49%
O=C(NC1=NCCN1)c1ccccc1 | inactive | inactive | 
CCCCCCCCCOc1ccc(C2=NCCCN2)cc1 | inactive |  | Activity [10]: Toxic
CCCCCCOc1ccc(C2=NCCN2)cc1 | inactive |  | inhibition [6]: Active; IC50 [5]: 90.9 µM
CCCCCCCCC(=O)NC1=NCCS1 | inactive | inactive | 
CCCCCCCCCOc1ccc(C2=NCCN2)cc1 | inactive |  | Activity [11]: Toxic; Activity [12]: Toxic
